Experiments:
CCRF-CEM = test: Concentration required to reduce the viability of mock-infected CEM cells by 50%; format: functional; conditions: Homo sapiens
[1] = tested on: Human immunodeficiency virus 2; test: Effective concentration required to inhibit HIV-2 induced cytopathicity by 50% in CEM cells; format: functional, organism-based; conditions: Human immunodeficiency virus 2, CCRF-CEM
[2] = molecular target: T1, Human immunodeficiency virus type 1 reverse transcriptase (Human immunodeficiency virus 1, UniProt Q72547); test: The compound was evaluated for inhibition of HIV-1 wild types […]-Lys recombinant reverse transcriptase
[3] = molecular target: T1, Human immunodeficiency virus type 1 reverse transcriptase; test: The compound was evaluated for inhibition of HIV-1 mutant […]-Lys recombinant reverse transcriptase

Structure (SMILES)	EC50 [1] [µM]	CC50 (CCRF-CEM) [µM]	IC50 [2] [µM]	IC50 [3] [µM]
Cc1cn(C2OC(CO[Si](C)(C)C(C)(C)C)CC2O[Si](C)(C)C(C)(C)C)c(=O)n(CC(=O)O)c1=O (stereo not drawn)	> 10	20.7	33.8	47.4
Cc1cn([C@@H]2O[C@H](CO[Si](C)(C)C(C)(C)C)C3(OS(=O)(=O)C=C3N)[C@H]2O[Si](C)(C)C(C)(C)C)c(=O)[nH]c1=O (stereo partly drawn)	> 20	14	3.6	> 500
Cc1cn([C@@H]2O[C@H](CO[Si](C)(C)C(C)(C)C)[C@@H](O)[C@H]2O[Si](C)(C)C(C)(C)C)c(=O)n(CC(=O)O)c1=O	> 10	23	138	158
Cc1cn([C@@H]2O[C@H](CO[Si](C)(C)C(C)(C)C)[C@@H](O[Si](C)(C)C(C)(C)C)[C@H]2O[Si](C)(C)C(C)(C)C)c(=O)n(CC(=O)O)c1=O	> 125	> 125		
Cc1cn([C@@H]2O[C@H](CO[Si](C)(C)C(C)(C)C)[C@@H](O[Si](C)(C)C(C)(C)C)[C@H]2O)c(=O)n(CC(=O)O)c1=O	> 10	29.3	207	335
Cc1cn([C@H]2C[C@H](O[Si](C)(C)C(C)(C)C)[C@@H](CO[Si](C)(C)C(C)(C)C)O2)c(=O)n(CC(=O)O)c1=O	> 10	20.3		
Cc1cn(C2CCC(CO[Si](C)(C)C(C)(C)C)O2)c(=O)n(CC(=O)O)c1=O (stereo not drawn)	> 250	> 250		
Cc1cn([C@H]2C[C@H](N=[N+]=[N-])[C@@H](CO)O2)c(=O)[nH]c1=O [ZIDOVUDINE]	0.004	6		

Further lines, with some results ahead:

EC50 [1] [µM]	Structure (SMILES)	CC50 (CCRF-CEM) [µM]	IC50 [2] [µM]	IC50 [3] [µM]
> 2	Cc1cn(C2OC(CO[Si](C)(C)C(C)(C)C)CC2O[Si](C)(C)C(C)(C)C)c(=O)n(CC(=O)OCc2ccccc2)c1=O (stereo not drawn)	21.6		
> 10	Cc1cn([C@H]2C[C@H](O[Si](C)(C)C(C)(C)C)[C@@H](CO[Si](C)(C)C(C)(C)C)O2)c(=O)n(CC(=O)OCc2ccccc2)c1=O	56.4		
> 250	Cc1cn([C@@H]2O[C@H](CO)[C@@H](O)[C@H]2O[Si](C)(C)C(C)(C)C)c(=O)n(CC(=O)O)c1=O	> 250		
> 50	Cc1cn([C@@H]2O[C@H](CO[Si](C)(C)C(C)(C)C)[C@@H](O[Si](C)(C)C(C)(C)C)[C@H]2O[Si](C)(C)C(C)(C)C)c(=O)n(CC(=O)OCc2ccccc2)c1=O	102		
> 10	Cc1cn([C@@H]2O[C@H](CO[Si](C)(C)C(C)(C)C)[C@@H](O[Si](C)(C)C(C)(C)C)[C@H]2O)c(=O)n(CC(=O)OCc2ccccc2)c1=O	57.1		
> 10	Cc1cn([C@@H]2O[C@H](CO)[C@@H](O)[C@H]2O[Si](C)(C)C(C)(C)C)c(=O)n(CC(=O)OCc2ccccc2)c1=O	26		
> 10	Cc1cn([C@@H]2O[C@H](CO[Si](C)(C)C(C)(C)C)[C@@H](O)[C@H]2O[Si](C)(C)C(C)(C)C)c(=O)n(CC(=O)OCc2ccccc2)c1=O	25.7		
> 50	Cc1cn(C2CCC(CO[Si](C)(C)C(C)(C)C)O2)c(=O)n(CC(=O)OCc2ccccc2)c1=O (stereo not drawn)	> 250		
> 250	Cc1cn(C2O[C@H](CO[Si](C)(C)C(C)(C)C)[C@@H](O)[C@H]2O)c(=O)n(CC(=O)O)c1=O (stereo partly drawn)	> 250		
> 10	Cc1cn(C2O[C@H](CO[Si](C)(C)C(C)(C)C)[C@@H](O)[C@H]2O)c(=O)n(CC(=O)OCc2ccccc2)c1=O (stereo partly drawn)	30		
> 250	Cc1cn(C2O[C@H](CO)[C@@H](O)[C@H]2O)c(=O)n(CC(=O)O)c1=O (stereo partly drawn)	> 250		
> 250	Cc1cn(C2O[C@H](CO)[C@@H](O)[C@H]2O)c(=O)n(CC(=O)OCc2ccccc2)c1=O (stereo partly drawn)	> 250		

Source: ChEMBL document CHEMBL1133864, “Identification of a novel family of nucleosides that specifically inhibit HIV-1 reverse transcriptase” (Bioorg Med Chem Lett, 2001)
